# Source: US6689764B1, “Treatment of angiogenesis dependent conditions with dextrin sulphate” (priority 1999, dated 2004)
# “Also recorded” adds a separate entry of the source.
# What was measured:
# [1] = system: HUVEC cell line; assay: TCS Biologicals Human Angiogenesis Model (tubule formation); format: cell-based
# Experimental: The effect of sulphated dextrin on vessel formation of the HUVEC cell line was performed by the use of the TCS Biologicals Human Angiogenesis Model. The assay is supplied as a growing culture of the HUVEC cell line together with culture matrix and additional human cells present (the exact nature of the cells is not known) at the earliest stages of tubule formation in a 24-well format. The positive control reagent was a standard stock solution of VEGF and the negative control was Suramin. After removing the well seals, the cultures were examined for cell morphology to confirm their viability.
# Growth medium was provided with the kit and was used to make up the sulphated dextrin at concentrations ranging from 0-1000 μg/ml. The existing medium was aspirated from the wells and replaced with medium containing the dextrin sulphate concentrations in a 0.5ml volume. This was placed at 37° C., in a 5% CO2 containing atmosphere. This was repeated on days 4, 7 and 9.
# Between days 7-11 cultures were fixed by the enclosed fixative and stained with the mouse monoclonal anti-PECAM-1 antibody at a 1:4000 dilution (present in blocking buffer). 0.5ml of diluted antibody was added per well and incubated for 60 minutes at 37° C. The secondary antibody (goat anti-mouse lgG alkaline phosphatase conjugate) was diluted 1:500 in blocking buffer and added to the wells after washing for 60 minutes at 37° C. After washing the plate the substrate was prepared; BCIP/NBT tablets were dissolved in distilled water and added to the wells. Following incubation for 5-10 minutes the wells were washed and were imaged using the Leica Qwin image analysis software package.
# [2] = system: human placental blood vessels; assay: Placental blood vessel in fibrin clot in vitro angiogenesis assay; format: cell-based; conditions: 100 μg/ml; for new vessel formation compared to media alone: up to day 22
# Experimental: Compounds were tested at a final concentration of 100 μg/ml. The degree of new vessel formation was quantified blind twice a week using a visual analog scale in which 0=no growth, 1=minimal new vessel formation, 2=significant new vessel formation, and 3=dense new vessel formation. An angiogenesis score was derived from each count by dividing the total score (i.e. the sum of all the wells) by the maximum possible score and then expressing the result as a percentage. This graph is representative of 3 experiments with a total of 20 wells/plate/experiment for each compound tested.
# Blood vessels (approximately 1-2 mm diameter) were excised from the apical surface of human placentas within 6 h of an elective Caesarean birth. Use of the placentas for these studies were approved by the Ethics Committee of Hammersmith Hospitals Trust, London. The blood vessels were placed in Hank's balanced salt solution and cut into 1-2 mm fragments using fine dissecting forceps and iridectomy scissors. Residual clots were removed and the blood vessels then soaked in Hank's balanced salt solution.
# The effect of each compound on new blood vessel formulation was determined by culturing the blood vessels within a fibrin clot in 24-well tissue culture plates. Thirty μl of bovine thrombin (50 NIH U/ml in 0.15 M sodium chloride) was added to each well followed by 1 ml/well of 3 mg/ml bovine fibrinogen in Medium 199. The thrombin and fibrinogen were rapidly mixed and a blood vessel fragment placed in the centre of the well. Fibrin gel formation occurred rapidly and left the vessel suspended within the gel. One ml/well of Medium 199 supplemented with 20% foetal calf serum, 250 IU/ml penicillin and 250 U/ml streptomycin was then added to each well. ε-arnino-n-caproic acid was also added (300 μg/ml) for the first 4 days and twice weekly thereafter (50 μg/ml) in order to prevent dissolution of the fibrin clot. The vessels were cultured at 37° C. in a humidified incubator for 25 days with the media being changed twice weekly.
# The degree of new vessel formation was quantified blind twice a week by three different observers using a visual analogue scale in which 0=no growth, 1=very little new vessel formation, 2=significant new vessel formation and 3=dense new vessel formation. An angiogenesis score was derived from the counts undertaken for each well by dividing the total score by the maximum score possible and then expressing the result as a percentage. On each of 3 separate occasions, each compound was tested in 20 replicate wells. […] Some of the fibrin clots were fixed overnight in 10% formalin, paraffin embedded, sectioned for histology and then stained for the endothelial cell markers Factor VIII and CD31. Results are expressed as the mean±sem. A students t-test was used to determine the level of significance.
# [3] = system: HUVEC's
# Experimental: (§1) Human umbilical vein endothelial cells (HUVEC's) were also harvested from umbilical cords by digestion with collagenase type II and cultured in 1% gelatin coated tissue culture flasks in Medium 199 supplemented with 20% fetal bovine serum, 100 IU/ml penicillin, 0.1 mg/ml streptomycin, 2mM L-glutamine, 10 U/ml heparin and 20 μg/ml endothelial cell growth supplement. The KS Y-1 cell line which was established from the pleural effusion of a patient with AIDS-associated Kaposi's sarcoma was also studied. It was CD34 and CD31 positive confirming it as being of endothelial origin.
# (§2) The effect of sulphated dextrins on the growth of HUVEC's and KSY-1 cells which were being cultured in the presence of basic fibroblast growth factor (bFGF) or vascular endothelial growth factor (VEGF) was also determined.
# [4] = system: KSY-1 cells
# Experimental: as §1, §2
# [5] = system: human umbilical vein endothelial cells; assay: Endothelial microtubule formation assay on Matrigel; format: cell-based; conditions: HUVEC on Matrigel, scored at 18 h
# Experimental: FIG. 6: The photomicrographs show endothelial microtubule formation in the presence of sulphated dextrins (×40 magnification). A visual analogue scale was used to determine the extent of tube formation and scored on a scale from 0 (all cells remain single) to 4 (all cells involved in tubular structures) as previously described (ref: 1,14). Space bar=100 microns.
# The endothelial microtuble formation assay was performed by isolating human umbilical vein endothelial cells from umbilical cords within 6 h of delivery by caesarean section. The umbilical vein was cannulated and 0.1% collagenase in phosphate buffered saline was introduced and incubated for 20 minutes. The endothelial cells liberated by the collagenase were obtained by washing the umbilical vein with Medium 199. The cells were washed three times with Medium 199 and then cultured in tissue culture flasks coated with fibronectin. […]
# Aliquots of Matrigel were dispensed into 35 mm diameter tissue culture dishes on ice and then incubated at 37° C. for 10 min to allow the gel to set. […] At various time points from 8-24 hours, the plates were examined and scored using a published scheme from 0-4, where 0=all adherent cells remain single, and 4=all adherent cells involved in tubular structures. New vessel formation was quantified blind by three different observers at 18 h. […]
# [6] = system: HPB-ALL cells; assay: [3H]-dextrin 2-sulphate binding to HPB-ALL cells
# [7] = system: HeLa cells; assay: [3H]-dextrin 2-sulphate binding to HeLa cells; conditions: n=9
# [8] = system: peripheral blood mononuclear cells and monocyte-derived-macrophages; assay: D2S cell surface binding to peripheral blood mononuclear cells and monocyte-derived-macrophages; conditions: PBMC and monocyte-derived-macrophages, read-out: dissociation constant
# Experimental: Our previous studies of peripheral blood mononuclear cells and monocyte-derived-macrophages have shown that D2S binds to the cell surface in a specific and saturable manner with a dissociation constant of 82±14 nM.
# [9] = Accumulation in cells of the peritoneal cavity and peripheral blood of treated patients; format: in vivo, human
# [10] = system: HUVECs; assay: Proliferation induced by bFGF or VEGF, [3H]-thymidine incorporation; format: cell-based, human; conditions: 100 μg/ml, bFGF 10 ng/ml or VEGF 20 ng/ml
# Experimental: FIG. 3: Graph to show the effect of sulphated dextrins on the proliferation of HUVECs induced by bFGF or VEGF was measured using a [^3H]-thymidine incorporation assay.
# For these experiments, HUVECs (5×10^3/well) were suspended in Medium M199 containing 10% FCS, 2 mM L-glutamine, 100 Iu/ml penicillin and 0.1 mg/ml streptomycin. After 24 h, the media was replaced with fresh media containing either D2S (100 μg/ml) or D6S (100 μg/ml) for 1 h following which either bFGF (10 ng/ml) or VEGF (20 ng/ml, Preprotech, Rocky Hill, N.J.) were added. […] [^3H]-thymidine (1 mCi/ml, Amersham Pharrnacia, Bucks, UK) was added 48 h later and the cells cultured for a further 16 h. Cells were harvested using an automated Betaplate 96 well harvester (Wallac Oy, Turku, Finland) and the radioactivity counted using a Betaplate liquid scintillation counter.
# [11] = system: KSY-1 cell line; assay: Proliferation with bFGF or VEGF, [3H]-thymidine incorporation; format: cell-based, human
# [12] = system: Kaposi's sarcoma; assay: Phase I clinical trial in patients with late stage AIDS: Kaposi's sarcoma; format: in vivo, human
# [13] = system: HIV-1; conditions: intra-peritoneal route, patients with late stage AIDS
compound,measurement,setting,value
"Cc1ccc(C(=O)Nc2ccc(S(=O)(=O)O)c3cc(S(=O)(=O)O)cc(S(=O)(=O)O)c23)cc1NC(=O)c1cccc(NC(=O)Nc2cccc(C(=O)Nc3cc(C(=O)Nc4ccc(S(=O)(=O)O)c5cc(S(=O)(=O)O)cc(S(=O)(=O)O)c45)ccc3C)c2)c1 [Suramin, reference compound]","branch points, inhibition",[1]; negative control reagent,98%
same,"tubule number, inhibitory effect compared to vehicle control",[1]; negative control reagent,51%
VEGF,"branch points, elevation",[1]; positive control reagent,131%
same,"tubule number, elevation compared to vehicle control",[1]; positive control reagent,174%
dextrin,new vessel formation compared to media alone,[2],no difference
same,cell viability (Trypan blue exclusion),[3],> 95%
same,rate of cell division,"[3]; HUVEC's, 7 day period, twice weekly cell counts",Neither dextrin nor sulphated dextrins affected
same,cell viability (Trypan blue exclusion),[4],> 95%
same,rate of cell division,"[4]; KSY-1 cells, 7 day period, twice weekly cell counts",Neither dextrin nor sulphated dextrins affected
"dextrin 2,6-sulphate",anti-angiogenic activity (microtubule formation),[5],more than that seen with D2S but less than that seen with D6S
dextrin 2-sulphate,Bmax,[6],4.8±0.3 pmol/10^6 cells
same,Kd,"[6]; specific and saturable binding, read-out: dissociation constant (Kd)",82 ± 14 nM
same,Bmax,[7],4.1±0.2 pmol/10^6 cells
same,Kd,[7],107 ± 12 nM
same,Kd,[8],82 ± 14 nM
same,accumulation in cells of treated patients,[9],accumulated in the peritoneal macrophages and mesothelial cells
same,effect on proliferation induced by bFGF or VEGF,[10],do not interfere
same,effect on proliferation induced by bFGF or VEGF,[10]; listed as D2S,no significant effect
same,effect on proliferation with bFGF or VEGF,[11],do not interfere
same,new blood vessel formation score (scale 0-3),[2]; day 22,1
same,new vessel formation compared to media alone,[2],reduced the rate of new vessel formation; also recorded: significant reduction in the number of new vessels
same,Kaposi's sarcoma clinical response,[12],clinical regression of Kaposi's sarcoma in three patients
same,viral load of HIV-1,[13],significant and sustained fall
dextrin 6-sulphate,effect on proliferation induced by bFGF or VEGF,[10],do not interfere
same,effect on proliferation induced by bFGF or VEGF,[10]; listed as D6S,no significant effect
same,effect on proliferation with bFGF or VEGF,[11],do not interfere
same,new vessel formation compared to media alone,[2],reduced the rate of new vessel formation
same,new vessel formation compared to media alone,[2]; listed as Dextrin 6-sulphate,significant decrease in new vessel formation
